These results are taken from patent publication US20120122896A1, “2,1,3-BENZOXADIAZOL DERIVATIVES FOR THE INHIBITION OF INFLUENZA A AND B VIRUS AND RESPIRATORY SYNCYTIAL VIRUS REPLICATION” (PIKE PHARMA GMBH, priority 2009, published 2012).

Assay [1] deals with HA-tagged PA of FluA. As to conditions: read-out: IC50 (nM) PA (FluA).
The subject of assay [2] is HA-tagged PA from FluB. The experiment in a line: competitive ELISA, PB1 peptide / PA of FluB. The format is binding, influenza B virus.

Consider MDVNPYFLFLKVPAQ [PB11-15 AT6Y, L7F], for which the IC50 in assay [1] was determined as 7.51 nM; in assay [2] it was 345 nM.
